Assay results reported in ChEMBL document CHEMBL4483862, “Open-source discovery of chemical leads for next-generation chemoprotective antimalarials” (2018).

System: Plasmodium berghei
Test: Luciferase/luciferin-expressing antifolate-resistant parasites were used to infect a culture of HepG2 cells that were pre-incubated with compounds. Infected hepatocytes emit light due to the luciferase reaction. Assay results are presented as the percent inhibition of light emission compared to control. […]
Type: functional
Settings: sporozoite; for IC90: read-out: LUCIFERASE INFECTION ASSAY - IC90
[1] = read-out: LUCIFERASE INFECTION ASSAY - IC50

Question: With `COc1cc(-c2ccc3ncc(-c4cccc(CO)c4)n3n2)cc(OC)c1OC` as the compound, how does the IC50 (HEPG2TOX_HILL_SLOPE 2.11, HEPG2TOX_R_SQUARED 0.989, PBLUC_HILL_SLOPE 5.29, PBLUC_R_SQUARED 0.606, read-out: LUCIFERASE INFECTION ASSAY - IC50) read?
Answer: The IC50 was 1.66 µM.

Question: And the IC90?
Answer: Its IC90 is 2.51 µM.

Question: What does the source list for `Cc1ccc2c(c1)C(=O)C(=O)N2CCN1CCCCC1`?
Answer: IC50 (FFLUC_HILL_SLOPE 11.5, FFLUC_R_SQUARED 0.31, read-out: LUCIFERASE INFECTION ASSAY - IC50): > 12.1 µM; IC90: > 12.1 µM

Question: How did the IC50 [1] turn out when `CCOC(=O)Cc1nn(Cc2nc(-c3ccc(C(F)(F)F)cc3)cs2)c(=O)c2ccccc12` was run?
Answer: Its IC50 is greater than 6.97 µM.

Question: What about the IC90 of the same compound?
Answer: Its IC90 is greater than 6.97 µM.

Question: How did the IC50 [1] turn out when `CCn1c(-c2ccccc2)c(C(=O)COC(=O)c2c(NC(C)=O)sc3c2CCCC3)c2ccccc21` was run?
Answer: Its IC50 is greater than 10 µM.

Question: And the IC90?
Answer: The IC90 was greater than 10 µM.

Question: What does the source list for `CN(CC(=O)Nc1ccc(Cl)c(C(F)(F)F)c1)c1nc(CN2CCCCC2)nc2sc3c(c12)CCCC3`?
Answer: IC50 (HEPG2TOX_HILL_SLOPE 2.23, HEPG2TOX_R_SQUARED 0.93, PBLUC_HILL_SLOPE 4.09, PBLUC_R_SQUARED 0.44, read-out: LUCIFERASE INFECTION ASSAY - IC50): 5.84 µM; IC90: 9.99 µM

Question: How did the IC50 [1] turn out when `CCCc1cc(NCCCN2CCOCC2)n2nc(C)c(-c3ccccc3)c2n1` was run?
Answer: Its IC50 is greater than 8.39 µM.

Question: What about the IC90 of the same compound?
Answer: The IC90 was greater than 8.39 µM.

Question: With `C=CCn1c2ccccc2n2nc(C)c(C(=O)/C=C/c3ccccn3)c12` as the compound, how does the IC50 (PBLUC_HILL_SLOPE 13.1, PBLUC_R_SQUARED 0.157, read-out: LUCIFERASE INFECTION ASSAY - IC50) read?
Answer: The IC50 was 3.42 µM.

Question: And the IC90?
Answer: Its IC90 is 4.04 µM.

Question: For `CCN(CC)c1ccc(NC(=O)CCc2ccccc2)cc1C`, which IC50 (HEPG2TOX_HILL_SLOPE 3.47, HEPG2TOX_R_SQUARED 0.947, PBLUC_HILL_SLOPE 2.46, PBLUC_R_SQUARED 0.836, read-out: LUCIFERASE INFECTION ASSAY - IC50) is on record?
Answer: The IC50 was 2.79 µM.

Question: What about the IC90 of the same compound?
Answer: Its IC90 is 6.81 µM.

Question: Which results are given for `Cc1cc(C(=O)CN2C(=O)C(=O)N(Cc3ccccc3)C2=O)c(C)n1-c1ccc2c(c1)OCO2`?
Answer: IC50 (HEPG2TOX_HILL_SLOPE 8.65, HEPG2TOX_R_SQUARED 0.666, PBLUC_HILL_SLOPE 3.13, PBLUC_R_SQUARED 0.534, read-out: LUCIFERASE INFECTION ASSAY - IC50): 6.04 µM; IC90: > 10 µM

Question: How did the IC50 (FFLUC_HILL_SLOPE 1.69, FFLUC_R_SQUARED 0.223, read-out: LUCIFERASE INFECTION ASSAY - IC50) turn out when `Cc1cc(NC(=O)COC(=O)CCCOc2ccc(Cl)cc2C)no1` was run?
Answer: Its IC50 is greater than 10 µM.

Question: What about the IC90 of the same compound?
Answer: The IC90 was greater than 10 µM.

Question: With `CN(CC(=O)Nc1ccc(Cl)c(Cl)c1)C(=O)C12CC3CC(CC(C3)C1)C2` as the compound, how does the IC50 [1] read?
Answer: Its IC50 is greater than 10 µM.

Question: And the IC90?
Answer: Its IC90 is greater than 10 µM.

Question: `COCCOc1ccc(C(F)(F)F)cc1NC(=O)c1ccc2ncsc2c1` was tested. Which IC50 (PBLUC_HILL_SLOPE 1.17, PBLUC_R_SQUARED 0.0937, read-out: LUCIFERASE INFECTION ASSAY - IC50) did it give?
Answer: Its IC50 is 8.48 µM.

Question: And the IC90?
Answer: Its IC90 is greater than 10 µM.

Question: `O=C(c1ccc(-c2ccc3c(c2)OCCO3)s1)N1CCc2ccccc21` was tested. Which IC50 [1] did it give?
Answer: The IC50 was greater than 10 µM.

Question: And the IC90?
Answer: Its IC90 is greater than 10 µM.

Question: For `COc1ccc(-c2cnc3cnc(-c4ccc(N)nc4)cn23)cn1`, which IC50 (PBLUC_HILL_SLOPE 29.9, PBLUC_R_SQUARED 0.596, read-out: LUCIFERASE INFECTION ASSAY - IC50) is on record?
Answer: Its IC50 is 8.62 µM.

Question: And the IC90?
Answer: Its IC90 is 9.27 µM.

Question: `Cc1ccc(-c2cc(C(=O)N(C)Cc3ccc(C(=O)NC4CC4)cc3)on2)cc1` was tested. Which IC50 [1] did it give?
Answer: Its IC50 is greater than 10 µM.

Question: What about the IC90 of the same compound?
Answer: The IC90 was greater than 10 µM.

Question: For `NC(Cc1ccc(F)cc1)c1csc(NC(=O)Nc2ccccc2Oc2ccccc2)n1` (centres undefined), which IC50 [1] is on record?
Answer: Its IC50 is greater than 7.36 µM.

Question: What about the IC90 of the same compound?
Answer: The IC90 was greater than 7.36 µM.

Question: Which results are given for `CCc1c(C#N)c(SCC(=O)c2cc(C)n(-c3ccccc3F)c2C)nc2c1C(=O)CC(C)(C)C2`?
Answer: IC50 [1]: 5.79 µM; IC90: > 10 µM

Question: How did the IC50 [1] turn out when `CC(C)c1ccc(NC(=O)CSc2ncc3c(n2)CC(C)(C)CC3=O)cc1` was run?
Answer: Its IC50 is greater than 8.6 µM.

Question: And the IC90?
Answer: Its IC90 is greater than 8.6 µM.

Question: For `CSc1nc2c(c(=O)n(C)c(=O)n2C)n1Cc1cccc(C(F)(F)F)c1`, which IC50 (HEPG2TOX_HILL_SLOPE 6.71, HEPG2TOX_R_SQUARED 0.561, read-out: LUCIFERASE INFECTION ASSAY - IC50) is on record?
Answer: The IC50 was greater than 8.59 µM.

Question: What about the IC90 of the same compound?
Answer: Its IC90 is greater than 8.59 µM.

Question: What does the source list for `COc1ccc(-c2cnc3cnc(-c4cccc(N)c4)cn23)cc1`?
Answer: IC50 (FFLUC_HILL_SLOPE 0.419, FFLUC_R_SQUARED 0.0515, PBLUC_HILL_SLOPE 8.9, PBLUC_R_SQUARED 0.87, read-out: LUCIFERASE INFECTION ASSAY - IC50): 1.31 µM; IC90: 1.68 µM

Question: With `COc1ccccc1N(Cc1nc(N)nc(Nc2ccc(C)cc2)n1)S(=O)(=O)c1cccs1` as the compound, how does the IC50 (HEPG2TOX_HILL_SLOPE 0.853, HEPG2TOX_R_SQUARED 0.978, PBLUC_HILL_SLOPE 2.92, PBLUC_R_SQUARED 0.627, read-out: LUCIFERASE INFECTION ASSAY - IC50) read?
Answer: Its IC50 is 2.03 µM.

Question: What about the IC90 of the same compound?
Answer: Its IC90 is 4.3 µM.

Question: Which results are given for `O=C(CN1CCN(C(C(=O)Nc2cc(C(F)(F)F)ccc2Cl)c2ccccc2)CC1)NC1CC1` (centres undefined)?
Answer: IC50 [1]: 9.79 µM; IC90: > 10 µM

Question: `COC(=O)C1=C(Nc2ccc(OS(=O)(=O)c3ccc(Cl)cc3)cc2)CSC1` was tested. Which IC50 [1] did it give?
Answer: Its IC50 is greater than 7.75 µM.

Question: What about the IC90 of the same compound?
Answer: The IC90 was greater than 7.75 µM.

Question: Which results are given for `Clc1ccc(-c2cnc3ccc(NCc4ccc5c(c4)OCO5)nn23)cc1`?
Answer: IC50 [1]: > 8.71 µM; IC90: > 8.71 µM

Question: How did the IC50 (FFLUC_HILL_SLOPE 0.849, FFLUC_R_SQUARED 0.0339, PBLUC_HILL_SLOPE 12.7, PBLUC_R_SQUARED 0.127, read-out: LUCIFERASE INFECTION ASSAY - IC50) turn out when `Cc1cc(C(=O)CSc2nnc3n2CCCCC3)c(C)n1-c1ccccc1` was run?
Answer: Its IC50 is 9.31 µM.

Question: What about the IC90 of the same compound?
Answer: The IC90 was greater than 10 µM.

Question: What does the source list for `CCN(CC)Cc1nc(N2CCN(Cc3c(C)nc4ccc(C)cn34)CC2)c2c(C)c(C)sc2n1`?
Answer: IC50 (PBLUC_HILL_SLOPE 1.28, PBLUC_R_SQUARED 0.354, read-out: LUCIFERASE INFECTION ASSAY - IC50): 5.6 µM; IC90: > 10 µM

Question: `COc1ccc(-c2cc(NC(=O)Cc3ccc(S(=O)(=O)N4CCCC4)s3)ccc2OC)cc1` was tested. Which IC50 (FFLUC_HILL_SLOPE 14.7, FFLUC_R_SQUARED 0.565, HEPG2TOX_HILL_SLOPE 10.6, HEPG2TOX_R_SQUARED 0.932, PBLUC_HILL_SLOPE 12.2, PBLUC_R_SQUARED 0.78, read-out: LUCIFERASE INFECTION ASSAY - IC50) did it give?
Answer: Its IC50 is 3.88 µM.

Question: And the IC90?
Answer: Its IC90 is 4.64 µM.

Question: For `O=C1Nc2ccc([N+](=O)[O-])cc2C1=C(c1nc2ccccc2s1)c1nc2ccccc2s1`, which IC50 (FFLUC_HILL_SLOPE 9.66, FFLUC_R_SQUARED 0.665, read-out: LUCIFERASE INFECTION ASSAY - IC50) is on record?
Answer: The IC50 was greater than 10 µM.

Question: What about the IC90 of the same compound?
Answer: Its IC90 is greater than 10 µM.

Question: Which IC50 (PBLUC_HILL_SLOPE 3.03, PBLUC_R_SQUARED 0.7, read-out: LUCIFERASE INFECTION ASSAY - IC50) does the source give for `CCOC(=O)c1nn(CCc2ccccc2)c2c1CN(C(=O)c1cc(C)n[nH]1)CC2` here?
Answer: The IC50 was 4.26 µM.

Question: And the IC90?
Answer: Its IC90 is greater than 8.1 µM.

Question: Which IC50 [1] does the source give for `CN1CCN(c2ccc(Cl)cc2NC(=O)CCc2nc3ccccc3s2)CC1` here?
Answer: The IC50 was greater than 10 µM.

Question: What about the IC90 of the same compound?
Answer: The IC90 was greater than 10 µM.

Question: For `C=CCc1cc(C(=O)Nc2ccc3oc(C)nc3c2)cc(OC)c1OC`, which IC50 [1] is on record?
Answer: Its IC50 is 4.31 µM.

Question: And the IC90?
Answer: The IC90 was greater than 10 µM.

Question: Which IC50 (PBLUC_HILL_SLOPE 2.6, PBLUC_R_SQUARED 0.44, read-out: LUCIFERASE INFECTION ASSAY - IC50) does the source give for `Cc1cc(C(=O)N/N=C/c2c(-c3ccccc3)nc3ccccn23)c(C)o1` here?
Answer: Its IC50 is 6.44 µM.

Question: And the IC90?
Answer: Its IC90 is greater than 10 µM.
